Converted amounts (≈) assume the structure as drawn. Read-outs that look alike come from different tables or passages of the source.
Columns and labels:
Test in all cases: In vitro MIC, broth dilution
Format in all cases: cell-based
E. coli GC 4559 = details: Escherichia coli, GC4559; E. coli GC 4559; read-out: MIC
E. coli GC 4560 = details: Escherichia coli, GC4560; E. coli GC 4560; read-out: MIC
E. coli GC 3226 = details: Escherichia coli, GC3226; E. coli GC 3226; read-out: MIC
S. marcescens GC 4077 = details: Serratia marcescens, GC4077; S. marcescens GC 4077; read-out: MIC
C. albicans GC 3066 = details: Candida albicans, GC3066; C. albicans GC 3066; read-out: MIC
M. morganii GC 4531 = details: Morganella morganii, GC4531; M. morganii GC 4531; read-out: MIC
K. pneumoniae GC 4534 = details: Klebsiella pneumoniae, GC4534; K. pneumoniae GC 4534; read-out: MIC
E. cloacae GC 3783 = details: Enterobacter cloacae, GC3783; E. cloacae GC 3783; read-out: MIC
P. aeruginosa GC 4532 = details: Pseudomonas aeruginosa, GC4532; P. aeruginosa GC 4532; read-out: MIC
CNS GC 4537 = test system: CNS GC 4537
In short: (§1)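 Broth dilution per NCCLS M7-A recommendations in Mueller-Hinton II medium, inoculum 5×10^5 CFU/ml, antibiotic range 64-0.06 μg/ml. Plates incubated 18 hours at 35° C in ambient air; MIC taken as lowest concentration inhibiting growth.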

CNS GC 4538 = test system: CNS GC 4538
In short: as §1

CNS GC 4547 = test system: CNS GC 4547
In short: as §1

E. faecalis GC 2242 = details: Enterococcus faecalis, GC2242; E. faecalis GC 2242; read-out: MIC
In short: as §1

E. faecalis GC 4555 = details: Enterococcus faecalis, GC4555; E. faecalis GC 4555; read-out: MIC
In short: as §1

E. faecalis GC 842 = details: Enterococcus faecalis, GC842; E. faecalis GC 842; read-out: MIC
In short: as §1

S. aureus GC 1131 = details: Staphylococcus aureus, GC1131; S. aureus GC 1131; read-out: MIC
In short: as §1

S. aureus GC 2216 = details: Staphylococcus aureus, GC2216; S. aureus GC 2216; read-out: MIC
In short: as §1

S. aureus GC 4536 = details: Staphylococcus aureus, GC4536; S. aureus GC 4536; read-out: MIC
In short: as §1

E. coli GC 2203 = details: Escherichia coli, GC2203; E. coli GC 2203; read-out: MIC
P. aeruginosa GC 2214 = details: Pseudomonas aeruginosa, GC2214; P. aeruginosa GC 2214; read-out: MIC

Structure (SMILES)	MIC (E. coli GC 4559) [µg/mL]	MIC (E. coli GC 4560) [µg/mL]	MIC (E. coli GC 3226) [µg/mL]	MIC (S. marcescens GC 4077) [µg/mL]	MIC (C. albicans GC 3066) [µg/mL]	MIC (M. morganii GC 4531) [µg/mL]	MIC (K. pneumoniae GC 4534) [µg/mL]	MIC (E. cloacae GC 3783) [µg/mL]	MIC (P. aeruginosa GC 4532) [µg/mL]	MIC (CNS GC 4537; CNS GC 4537, read-out: MIC) [µg/mL]	MIC (CNS GC 4538; CNS GC 4538, read-out: MIC) [µg/mL]	MIC (CNS GC 4547; CNS GC 4547, read-out: MIC) [µg/mL]	MIC (E. faecalis GC 2242) [µg/mL]	MIC (E. faecalis GC 4555) [µg/mL]	MIC (E. faecalis GC 842) [µg/mL]	MIC (S. aureus GC 1131) [µg/mL]	MIC (S. aureus GC 2216) [µg/mL]	MIC (S. aureus GC 4536) [µg/mL]	MIC (E. coli GC 2203) [µg/mL]	MIC (P. aeruginosa GC 2214) [µg/mL]	further results
COc1ccc(Cn2c(=O)ccn([C@@H]3OC([C@H](O)[C@H](NCCCNC(=O)[C@@H](N)C(C)O)C(=O)O)[C@@H](O)[C@H]3O[Si](C)(C)C(C)(C)C)c2=O)cc1 (stereo partly drawn) [Example 48]	> 128	128 (≈ 180 µM)	> 128	128 (≈ 180 µM)	128 (≈ 180 µM)	128 (≈ 180 µM)	> 128	> 128	128 (≈ 180 µM)	> 128	> 128	128 (≈ 180 µM)	64 (≈ 90.2 µM)	128 (≈ 180 µM)	128 (≈ 180 µM)	> 128	> 128	> 128	> 128	> 128	–
COc1ccc(Cn2c(=O)ccn([C@@H]3OC([C@H](O)[C@H](NCCCNC(=O)[C@H](CC(C)C)NC(=O)[C@H](CCCNC(=N)N[N+](=O)[O-])NC(=O)N[C@H](C(=O)OCc4ccccc4)C(C)C)C(=O)O)[C@@H](O)[C@H]3O)c2=O)cc1 (stereo partly drawn) [Example 49, (4S,8S,11S,18S)-18-[(R)-[(3S,4R,5R)-3,4-Dihydroxy-5-(3-(4-methoxybenzyl)-2,4-dioxo-3,4-dihydro-1(2H)-pyrimidinyl)tetrahydro-2-furanyl](hydroxy)methyl]-8-(3-{[(2,2-dioxido-2lambda˜1˜-diazanyl)(imino)methyl]amino}propyl)-11-isobutyl-4-isopropyl-3,6,9,12-tetraoxo-1-phenyl-2-oxa-5,7,10,13,17-pentaazanonadecan-19-oic acid]	> 128	> 128	> 128	> 128	128 (≈ 123 µM)	128 (≈ 123 µM)	> 128	> 128	128 (≈ 123 µM)	–	–	–	128 (≈ 123 µM)	> 128	128 (≈ 123 µM)	> 128	> 128	> 128	> 128	128 (≈ 123 µM)	MIC (CNS GC 4537): > 128 µg/mL; MIC (CNS GC 4538): > 128 µg/mL; MIC (CNS GC 4547): > 128 µg/mL
COc1ccc(Cn2c(=O)ccn([C@@H]3OC([C@H](O)[C@H](NCCCNC(=O)[C@H](CC(C)C)NC(=O)[C@H](CCCNC(=N)N)NC(=O)N[C@H](C(=O)O)C(C)C)C(=O)O)[C@@H](O)[C@H]3O)c2=O)cc1 (stereo partly drawn) [Example 50, (2S,6S,9S,16S)-6-(3-{[Amino(imino)methyl]amino}propyl)-16-[(R)-[(3S,4R,5R)-3,4-dihydroxy-5-(3-(4-methoxybenzyl)-2,4-dioxo-3,4-dihydro-1(2H)-pyrimidinyl)tetrahydro-2-furanyl](hydroxy)-methyl]-9-isobutyl-2-isopropyl-4,7,10-trioxo-3,5,8,11,15-pentaazaheptadecane-1,17-dioic acid]	> 128	> 128	> 128	> 128	128 (≈ 141 µM)	128 (≈ 141 µM)	> 128	> 128	128 (≈ 141 µM)	> 128	> 128	> 128	128 (≈ 141 µM)	> 128	> 128	> 128	> 128	> 128	> 128	128 (≈ 141 µM)	–
COc1ccc(Cn2c(=O)ccn([C@@H]3OC([C@H](O)[C@H](NCCCNC(=O)[C@H](CC(C)C)NC(=O)OCc4ccccc4)C(=O)OC(C)(C)C)[C@@H](O)[C@H]3O)c2=O)cc1 (stereo partly drawn) [Example 51, tert-Butyl (5S,12S)-12-[(R)-[(3S,4R,5R)-3,4-dihydroxy-5-(3-(4-methoxybenzyl)-2,4-dioxo-3,4-dihydro-1(2H)-pyrimidinyl)tetrahydro-2-furanyl](hydroxy)methyl]-5-isobutyl-3,6-dioxo-1-phenyl-2-oxa-4,7,11-triazatridecan-13-oate]	> 128	128 (≈ 160 µM)	> 128	> 128	128 (≈ 160 µM)	128 (≈ 160 µM)	> 128	> 128	128 (≈ 160 µM)	> 128	128 (≈ 160 µM)	> 128	128 (≈ 160 µM)	128 (≈ 160 µM)	128 (≈ 160 µM)	> 128	> 128	> 128	> 128	128 (≈ 160 µM)	–
COc1ccc(Cn2c(=O)ccn([C@@H]3OC([C@H](O)[C@H](NCCCNC(=O)[C@H](CC(C)C)NC(=O)OCc4ccccc4)C(=O)O)[C@@H](O)[C@H]3O)c2=O)cc1 (stereo partly drawn) [Example 52, (5S,12S)-12-[(R)-[(3S,4R,5R)-3,4-Dihydroxy-5-(3-(4-methoxybenzyl)-2,4-dioxo-3,4-dihydro-1(2H)-pyrimidinyl)tetrahydro-2-furanyl](hydroxy)methyl]-5-isobutyl-3,6-dioxo-1-phenyl-2-oxa-4,7,11-triazatridecan-13-oic acid]	> 128	128 (≈ 173 µM)	> 128	128 (≈ 173 µM)	128 (≈ 173 µM)	128 (≈ 173 µM)	> 128	> 128	128 (≈ 173 µM)	> 128	> 128	> 128	128 (≈ 173 µM)	128 (≈ 173 µM)	128 (≈ 173 µM)	> 128	> 128	> 128	> 128	128 (≈ 173 µM)	–
COc1ccc(Cn2c(=O)ccn([C@@H]3OC([C@H](O)[C@H](NCCCNC(=O)[C@@H](N)CC(C)C)C(=O)O)[C@@H](O)[C@H]3O)c2=O)cc1 (stereo partly drawn) [Example 53, (2S,3R)-2-[(3-{[(2S)-2-Amino-4-methylpentanoyl]amino}propyl)amino]-3-[(3S,4R,5R)-3,4-dihydroxy-5-(3-(4-methoxybenzyl)-2,4-dioxo-3,4-dihydro-1(2H)-pyrimidinyl)tetrahydro-2-furanyl]-3-hydroxypropanoic acid]	> 128	128 (≈ 211 µM)	> 128	> 128	128 (≈ 211 µM)	> 128	> 128	> 128	128 (≈ 211 µM)	> 128	> 128	> 128	128 (≈ 211 µM)	128 (≈ 211 µM)	128 (≈ 211 µM)	> 128	> 128	> 128	> 128	128 (≈ 211 µM)	–

— patent US6858591B2, “Antibiotic AA 896 analogs” (Wyeth Holdings Corporation, priority 2001, dated 2005)
